Inhibition data for 1 compound are collected here from paper PMC11233931, “Remodeling tumor‐associated macrophage for anti‐cancer effects by rational design of irreversible inhibition of mitogen‐activated protein kinase‐activated protein kinase 2” (MedComm, 2024).

Experiment in all cases: Eurofins kinase selectivity profile against 380 other human recombinant kinases (Table S2)
Common to all, as to type: biochemical

For experiment [1], the target named is T1, 380 human recombinant protein kinases (Homo sapiens, UniProt O43293).
T1 construct: purchased Eurofins (Celle Lévescault)
The following applies: ZIPK(h), read-out: Inhibition rate (%). In short, it runs like this:
(§1)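 Profiling against 380 human recombinant kinases carried out by Eurofins at various compound concentrations.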

Experiment [2] concerns the target T2, 380 human recombinant protein kinases (Homo sapiens, UniProt Q13554).
T2 construct: purchased Eurofins (Celle Lévescault)
The following applies: CaMKIIβ(h), read-out: Inhibition rate. In short, it runs like this:
as §1

In experiment [3] the target is T3, 380 human recombinant protein kinases (Homo sapiens, UniProt P41743).
T3 construct: purchased Eurofins (Celle Lévescault)
T3 sequence (P41743 1-596): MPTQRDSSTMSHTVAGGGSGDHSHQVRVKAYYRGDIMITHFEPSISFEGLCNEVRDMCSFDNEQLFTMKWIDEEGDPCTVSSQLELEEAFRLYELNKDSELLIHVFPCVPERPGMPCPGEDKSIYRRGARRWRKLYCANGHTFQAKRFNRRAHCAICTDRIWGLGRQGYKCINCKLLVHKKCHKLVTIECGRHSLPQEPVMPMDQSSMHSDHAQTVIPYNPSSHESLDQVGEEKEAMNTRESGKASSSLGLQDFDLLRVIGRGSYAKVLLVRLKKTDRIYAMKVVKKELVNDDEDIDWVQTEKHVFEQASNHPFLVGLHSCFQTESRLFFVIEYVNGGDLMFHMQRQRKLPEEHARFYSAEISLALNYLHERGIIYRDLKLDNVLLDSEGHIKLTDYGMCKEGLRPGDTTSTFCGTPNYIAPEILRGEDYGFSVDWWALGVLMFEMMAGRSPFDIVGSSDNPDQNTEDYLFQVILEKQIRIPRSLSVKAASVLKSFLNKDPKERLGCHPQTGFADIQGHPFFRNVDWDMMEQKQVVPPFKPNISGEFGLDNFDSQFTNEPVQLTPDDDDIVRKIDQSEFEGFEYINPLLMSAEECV
Conditions: PKCι(h), read-out: Inhibition rate. In short, it runs like this: as §1

Experiment [4] deals with T4, 380 human recombinant protein kinases (Homo sapiens, UniProt Q8WXR4).
T4 construct: purchased Eurofins (Celle Lévescault)
T4 sequence (Q8WXR4 1-1341): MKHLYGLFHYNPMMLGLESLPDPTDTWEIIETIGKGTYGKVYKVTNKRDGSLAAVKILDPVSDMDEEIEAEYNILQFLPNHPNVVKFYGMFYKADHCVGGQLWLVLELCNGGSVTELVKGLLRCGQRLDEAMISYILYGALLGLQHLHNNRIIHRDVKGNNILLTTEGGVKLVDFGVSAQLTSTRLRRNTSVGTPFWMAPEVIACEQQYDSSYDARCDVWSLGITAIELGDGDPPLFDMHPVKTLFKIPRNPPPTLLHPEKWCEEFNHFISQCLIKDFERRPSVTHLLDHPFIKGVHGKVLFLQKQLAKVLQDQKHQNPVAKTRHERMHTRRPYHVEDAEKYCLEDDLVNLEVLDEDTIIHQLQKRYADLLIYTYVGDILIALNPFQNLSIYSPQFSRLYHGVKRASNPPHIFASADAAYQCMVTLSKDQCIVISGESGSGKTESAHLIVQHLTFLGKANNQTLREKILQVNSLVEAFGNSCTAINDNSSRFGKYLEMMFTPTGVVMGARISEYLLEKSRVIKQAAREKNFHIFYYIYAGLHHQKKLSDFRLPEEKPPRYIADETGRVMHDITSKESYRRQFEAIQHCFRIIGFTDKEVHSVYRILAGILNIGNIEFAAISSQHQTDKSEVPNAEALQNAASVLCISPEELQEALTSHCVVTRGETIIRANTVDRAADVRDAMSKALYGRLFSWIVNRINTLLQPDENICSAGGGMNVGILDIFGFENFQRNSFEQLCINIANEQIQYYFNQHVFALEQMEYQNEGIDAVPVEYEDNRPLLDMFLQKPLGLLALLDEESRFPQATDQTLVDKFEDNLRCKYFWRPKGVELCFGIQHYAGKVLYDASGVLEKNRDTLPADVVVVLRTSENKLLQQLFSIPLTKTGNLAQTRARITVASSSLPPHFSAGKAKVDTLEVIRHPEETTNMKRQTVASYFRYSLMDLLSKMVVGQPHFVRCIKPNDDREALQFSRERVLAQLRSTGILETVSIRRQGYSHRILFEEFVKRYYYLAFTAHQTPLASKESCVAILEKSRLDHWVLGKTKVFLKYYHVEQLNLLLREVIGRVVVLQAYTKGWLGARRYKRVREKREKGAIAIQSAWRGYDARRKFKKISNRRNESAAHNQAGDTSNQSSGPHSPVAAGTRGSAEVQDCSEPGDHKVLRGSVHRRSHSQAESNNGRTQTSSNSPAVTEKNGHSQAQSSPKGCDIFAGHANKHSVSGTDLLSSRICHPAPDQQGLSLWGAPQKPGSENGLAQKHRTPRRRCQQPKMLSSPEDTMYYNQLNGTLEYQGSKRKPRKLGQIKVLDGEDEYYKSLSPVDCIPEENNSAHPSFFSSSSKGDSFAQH
Conditions: MYO3B(h), read-out: Inhibition rate. In short, it runs like this:
as §1

Experiment [5] addresses T5, 380 human recombinant protein kinases (Homo sapiens, UniProt P54646).
T5 construct: purchased Eurofins (Celle Lévescault)
Conditions: AMPKα2(h), read-out: Inhibition rate. In short, it runs like this:
as §1

Each structure is given as a SMILES string.

T1 sequence (O43293 whole entry): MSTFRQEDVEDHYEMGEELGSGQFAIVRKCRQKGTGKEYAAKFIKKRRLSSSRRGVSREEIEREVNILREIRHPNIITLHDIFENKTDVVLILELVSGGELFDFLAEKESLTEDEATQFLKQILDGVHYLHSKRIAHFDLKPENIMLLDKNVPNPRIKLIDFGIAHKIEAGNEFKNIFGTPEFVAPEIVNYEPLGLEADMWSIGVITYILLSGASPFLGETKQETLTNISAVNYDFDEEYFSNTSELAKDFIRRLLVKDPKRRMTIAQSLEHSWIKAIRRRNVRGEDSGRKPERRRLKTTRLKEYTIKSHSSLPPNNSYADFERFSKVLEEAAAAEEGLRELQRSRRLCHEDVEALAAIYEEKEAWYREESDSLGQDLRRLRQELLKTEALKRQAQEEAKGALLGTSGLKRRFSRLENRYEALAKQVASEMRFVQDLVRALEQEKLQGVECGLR
T5 sequence (P54646 whole entry): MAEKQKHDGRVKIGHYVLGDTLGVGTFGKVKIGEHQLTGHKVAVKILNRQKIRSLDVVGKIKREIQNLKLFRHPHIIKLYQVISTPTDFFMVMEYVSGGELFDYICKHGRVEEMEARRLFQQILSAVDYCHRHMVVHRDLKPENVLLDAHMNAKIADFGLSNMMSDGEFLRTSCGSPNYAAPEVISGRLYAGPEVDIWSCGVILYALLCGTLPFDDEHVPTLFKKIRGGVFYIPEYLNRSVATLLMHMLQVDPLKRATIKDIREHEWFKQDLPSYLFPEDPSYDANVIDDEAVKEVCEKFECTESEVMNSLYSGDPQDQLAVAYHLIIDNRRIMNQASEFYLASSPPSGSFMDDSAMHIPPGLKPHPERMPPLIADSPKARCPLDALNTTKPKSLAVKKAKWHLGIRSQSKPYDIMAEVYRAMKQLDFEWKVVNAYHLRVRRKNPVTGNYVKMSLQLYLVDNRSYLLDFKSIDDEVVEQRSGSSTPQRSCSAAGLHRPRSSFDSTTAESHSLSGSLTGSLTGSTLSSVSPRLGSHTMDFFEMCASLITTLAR
T2 sequence (Q13554 whole entry): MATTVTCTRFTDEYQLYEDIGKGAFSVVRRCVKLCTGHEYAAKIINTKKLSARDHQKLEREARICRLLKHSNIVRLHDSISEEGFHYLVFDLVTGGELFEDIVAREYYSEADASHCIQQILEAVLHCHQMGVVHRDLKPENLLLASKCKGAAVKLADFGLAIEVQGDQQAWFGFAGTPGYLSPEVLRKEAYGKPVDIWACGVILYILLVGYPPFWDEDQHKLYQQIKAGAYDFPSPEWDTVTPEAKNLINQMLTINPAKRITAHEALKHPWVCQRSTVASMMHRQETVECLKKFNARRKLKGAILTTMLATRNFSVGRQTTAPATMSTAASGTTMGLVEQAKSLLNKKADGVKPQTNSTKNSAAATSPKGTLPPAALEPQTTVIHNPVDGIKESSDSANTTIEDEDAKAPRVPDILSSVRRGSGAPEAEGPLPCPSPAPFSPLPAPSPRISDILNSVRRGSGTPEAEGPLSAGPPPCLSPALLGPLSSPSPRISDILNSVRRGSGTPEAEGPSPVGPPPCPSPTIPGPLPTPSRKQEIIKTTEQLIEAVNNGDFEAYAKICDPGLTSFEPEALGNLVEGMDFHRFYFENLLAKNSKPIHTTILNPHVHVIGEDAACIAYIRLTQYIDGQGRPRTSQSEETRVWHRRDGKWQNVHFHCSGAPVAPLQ

As usually defined, the inhibition is the relative decrease from the control value, in per cent. For the compound `C=CC(=O)Nc1cc(-c2cc(-c3cc4c([nH]3)CCNC4=O)ccn2)ccc1OC(F)(F)F` [compound 11], the inhibition at 0.01 µM is 4% in experiment [1] (10 nM); -1% in experiment [2] (10 nM); 0% in experiment [3] (10 nM); 3% in experiment [4] (10 nM); 3% in experiment [5] (10 nM). In addition, the inhibition at 0.1 µM in experiment [1] (100 nM) is 8%; in experiment [2] (100 nM), 9%; in experiment [3] (100 nM), 5%; in experiment [4] (100 nM) it was 4%; in experiment [5] (100 nM), 11%. For the same compound, the inhibition at 1 µM in experiment [1] (1000 nM) was 15%; in experiment [2] (1000 nM), 14%; in experiment [3] (1000 nM) it was 8%; in experiment [4] (1000 nM), 16%; in experiment [5] (1000 nM), 43%.
